Each structure is given as a SMILES string.

This is an account of results in patent US20140377340A1, “HLA-DR BINDING PEPTIDES AND THEIR USES” (priority 2007, published 2014).

Assay [1] relates to short term T cell lines from breast or ovarian cancer patients. The assay can be described thus: IFN-γ ELISpot analysis of short term T cell lines (peptide versus protein fragment; natural processing). The conditions noted are these: T cell lines respond to culture peptide and to protein fragment; FIGS. 5 and 6. In kind it is cell-based, human. From the text:
IFN-γ ELISpot analysis of short term T cell lines generated against HER-2/neu peptides, p53 (Panel A), p83 (Panel B), p88 (Panel C) and p885 (Panel D). […] Each bar is the mean (s.e.m.) of three replicates.
FIG. 6 is identical to FIG. 5 except that the results were obtained using IGFBP-2 derived helper epitopes.

For assay [2], the system named is 15 different HLA-DR molecules. The assay can be described thus: HLA-DR binding assays, panel of 15 different HLA-DR molecules (breadth of binding). The conditions noted are these: number of the 15 HLA-DR molecules bound (binders: 1000 nM or better).
A further assay deals with T1, purified HLA DRB1*0101 (Homo sapiens, UniProt P01903+P01911, A100R/D57E/F55L/F60I/F76Y/I96L/L162R/M171V/P40L/Q125E/R42F/V115G/Y59C).
T1 construct: purified from EBV transformed homozygous cell lines or single MHC allele transfected 721.221, C1R, or fibroblast lines; made in house
The assay can be described thus: HLA-DR radioligand binding inhibition assay, DRB1*0101. The conditions noted are these: IC50 nM purified HLA DRB1 *0101, purified HLA DRB1*0101. In outline: (§1)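 The probe, 1-10 nM radiolabeled peptide, was incubated with 1 μM to 1 nM HLA-DR for 2 days in the presence of protease inhibitors.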

For another assay, the target named is T2, purified HLA DRB1*0301 (Homo sapiens, UniProt P01903+P01911, A100K/A102G/A103R/A169T/F55Y/I96L/K41T/L162R/M171V/P40S/Q125H/Q178H/Q39Y/R42S/S66N/T106N/T262R/W38E/Y61H).
T2 construct: purified from EBV transformed homozygous cell lines or single MHC allele transfected 721.221, C1R, or fibroblast lines; made in house
Briefly: HLA-DR radioligand binding inhibition assay, DRB1*0301. The conditions noted are these: IC50 nM purified HLA DRB1 *0301, purified HLA DRB1*0301. On the procedure:
(§2) Instead, wells of an opaque white 96-well Optiplate (Packard) are coated with 3 μg (100 μl@ 30 μg/ml) of HLA-specific antibody (Ab) that “capture” complexes of radiolabeled MHC and unlabeled peptide transferred from the molecular binding assay plate in 100 μl of 0.05% NP40/PBS. After a 3-hour incubation period, the supernatant is decanted and scintillation fluid (Microscint 20) added. Captured complexes are then measured on a microplate scintillation and luminescence counter (TopCount NXTTM; Packard).
(§3) HLA-DR purification. Fifteen distinct HLA-DR molecules were used in quantitative assays to measure the binding of peptides to solubilized HLA-DR molecules. […] Briefly, columns of inactivated Sepharose CL4B and Protein A Sepharose were used as pre-columns. HLA-DR molecules were captured by passage of lysates over LB3.1 monoclonal antibody (anti-HLA-DRA) columns. Antibody columns were washed with 10 mM Tris-HCL, pH8.0 with 1% (v/v) NP-40, followed by PBS containing 0.4% (w/v) n-octylglucoside.
(§4) Briefly, 1-10 nM of radiolabeled peptide was co-incubated for 2 days at either room temperature or 37° C. with 1 μM to 1 nM purified HLA-DR molecules in the presence of a cocktail of protease inhibitors. Assays were performed at various pH conditions, ranging from pH 4 to pH 7. […] After incubation, the percentage of HLA-DR-bound radioactivity is determined by capturing HLA-DR/peptide complexes on Optiplates (Packard Instruments, Meriden, Conn.) coated with the LB3.1 antibody and determining bound counts per minute using the TopCount microscintillation counter (Packard Instruments).

The next assay concerns the target T3, purified HLA DRB1*0401 (Homo sapiens, UniProt P01903+P01911, A100K/A169T/F76Y/I96L/K127E/L162R/M171V/N62H/P40V/Q125Y/R42H/S133A/S149N/S66Y/V115G/V209L/W38E).
T3 construct: purified from EBV transformed homozygous cell lines or single MHC allele transfected 721.221, C1R, or fibroblast lines; made in house
Briefly: HLA-DR radioligand binding inhibition assay, DRB1*0401. The conditions noted are these: IC50 nM purified HLA DRB1 *0401, purified HLA DRB1*0401. In outline:
as §1

In the next assay the target is T4, purified HLA DRB1*0802 (Homo sapiens, UniProt P01903+P01911, A100R/A103L/A169T/F76Y/H45Y/I96F/K41T/L162R/M171V/P40S/Q125H/Q178H/Q39Y/Q99D/R218S/R42G/S66Y/V115G/W38E).
T4 construct: purified from EBV transformed homozygous cell lines or single MHC allele transfected 721.221, C1R, or fibroblast lines; made in house
Briefly: HLA-DR radioligand binding inhibition assay, DRB1*0802. The conditions noted are these: IC50 nM purified HLA DRB1 *0802, purified HLA DRB1*0802. As for the experimental part:
as §2
as §3, with “n-octylglucoside. […] The pH was reduced to 8.0 and the eluates were concentrated by centrifugation in Centriprep 30 concentrators at 2000 rpm (Amicon, Beverly, Mass.).” for “n-octylglucoside.”
as §4, with “Instruments). […] Competitor peptides are tested in 2-4 complete, independent experiments, at concentrations ranging from […].” for “Instruments).”

The next assay has as its target T5, purified HLA DRB1*1201 (Homo sapiens, UniProt P01903+P01911, A100R/A169T/D57E/D86V/F55L/H45Y/K41T/L162R/M171V/P40S/Q125H/Q178H/Q39Y/Q99D/R42G/S66L/T262R/V114A/V67L/W38E/Y59H/Y61H/Y89S).
T5 construct: purified from EBV transformed homozygous cell lines or single MHC allele transfected 721.221, C1R, or fibroblast lines; made in house
The assay can be described thus: HLA-DR radioligand binding inhibition assay, DRB1*1201. On the procedure:
as §2
as §3, with “n-octylglucoside. […] The pH was reduced to 8.0 and the eluates were concentrated by centrifugation in Centriprep 30 concentrators at 2000 rpm (Amicon, Beverly, Mass.).” for “n-octylglucoside.”
as §4, with “Instruments). […] Competitor peptides are tested in 2-4 complete, independent experiments, at concentrations ranging from […].” for “Instruments).”

For another assay, the target named is T6, purified HLA DRB1*1501 (Homo sapiens, UniProt P01903+P01911).
T6 construct: purified from EBV transformed homozygous cell lines or single MHC allele transfected 721.221, C1R, or fibroblast lines; made in house
The assay can be described thus: HLA-DR radioligand binding inhibition assay, DRB1*1501. Summed up:
as §1

For another assay, the target named is T7, purified HLA DRB3*0101 (Homo sapiens, UniProt P01903+P79483).
T7 construct: purified from EBV transformed homozygous cell lines or single MHC allele transfected 721.221, C1R, or fibroblast lines; made in house
Briefly: HLA-DR radioligand binding inhibition assay, DRB3*0101. The conditions noted are these: IC50 nM purified HLA DRB3 *0101, purified HLA DRB3*0101. As for the experimental part: as §2
as §3, with “n-octylglucoside. […] The pH was reduced to 8.0 and the eluates were concentrated by centrifugation in Centriprep 30 concentrators at 2000 rpm (Amicon, Beverly, Mass.).” for “n-octylglucoside.”
as §4, with “Instruments). […] Competitor peptides are tested in 2-4 complete, independent experiments, at concentrations ranging from […].” for “Instruments).”

The target in the next assay is T8, purified HLA DRB5*0101 (Homo sapiens, UniProt P01903+Q30154).
T8 construct: purified from EBV transformed homozygous cell lines or single MHC allele transfected 721.221, C1R, or fibroblast lines; made in house
Briefly: HLA-DR radioligand binding inhibition assay, DRB5*0101. The conditions noted are these: IC50 nM purified HLA DRB5 *0101, purified HLA DRB5*0101. In outline:
as §1

For `CC[C@H](C)[C@H](NC(=O)[C@H](CC(C)C)NC(=O)[C@H](CCCCN)NC(=O)CNC(=O)[C@@H](N)[C@@H](C)O)C(=O)N[C@@H](CCC(N)=O)C(=O)NCC(=O)N[C@@H](C)C(=O)N1CCC[C@H]1C(=O)N[C@H](C(=O)N[C@H](C(=O)N[C@@H](CCCNC(=N)N)C(=O)NCC(=O)N[C@@H](CC(=O)O)C(=O)N1CCC[C@H]1C(=O)O)[C@@H](C)CC)[C@@H](C)O` [Peptide 9019.0192], the “naturally processed and presented antigen” value in assay [1] is given as “naturally processed peptides”. In addition, in assay [2], the “Total XRN” value amounted to 9.
Regarding `CC[C@H](C)[C@H](NC(=O)[C@H](CS)NC(=O)[C@H](Cc1c[nH]c2ccccc12)NC(=O)[C@@H](N)CCCNC(=N)N)C(=O)N1CCC[C@H]1C(=O)N[C@@H](Cc1c[nH]c2ccccc12)C(=O)N[C@@H](CCC(N)=O)C(=O)N[C@@H](CCCNC(=N)N)C(=O)N[C@@H](CC(C)C)C(=O)N[C@@H](CC(C)C)C(=O)N[C@@H](CC(C)C)C(=O)N[C@H](C(=O)N[C@@H](C)C(=O)N[C@@H](CO)C(=O)N[C@@H](CC(C)C)C(=O)O)[C@@H](C)O` [Peptide 9019.0104], the half-inhibitory concentration (IC50) on purified HLA DRB1*0101 was determined as 1470 nM; at purified HLA DRB1*0301, 7860 nM; on purified HLA DRB1*0401, 426 nM; on purified HLA DRB1*0802, 263 nM; on purified HLA DRB1*1201, 1560 nM; at purified HLA DRB1*1501 it was 61 nM. Moreover, the values for the half-maximal inhibitory concentration (IC50) on purified HLA DRB3*0101 and on purified HLA DRB5*0101 were more than 20000 nM and 4010 nM, respectively.
Consider `CC[C@H](C)[C@H](NC(=O)[C@H](CC(C)C)NC(=O)[C@@H](NC(=O)[C@@H](N)Cc1ccc(O)cc1)C(C)C)C(=O)N[C@@H](C)C(=O)N[C@@H](Cc1c[nH]cn1)C(=O)N[C@@H](CC(N)=O)C(=O)N[C@@H](CCC(N)=O)C(=O)N[C@H](C(=O)N[C@@H](CCCNC(=N)N)C(=O)N[C@@H](CCC(N)=O)C(=O)N[C@H](C(=O)N1CCC[C@H]1C(=O)N[C@@H](CC(C)C)C(=O)N[C@@H](CCC(N)=O)C(=O)O)C(C)C)C(C)C` [Peptide 9019.0033], for which, in assay [1], the “naturally processed and presented antigen” value is “naturally processed and presented antigens”. The “Total XRN” value in assay [2] was 14.
`CSCC[C@H](NC(=O)[C@H](C)NC(=O)[C@@H](N)CCCNC(=N)N)C(=O)N[C@@H](CC(C)C)C(=O)N[C@@H](CCCCN)C(=O)N[C@@H](C)C(=O)N[C@@H](CCC(=O)O)C(=O)N[C@@H](CCC(=O)O)C(=O)N[C@H](C(=O)N[C@@H](CS)C(=O)N[C@@H](C)C(=O)N1CCC[C@H]1C(=O)N[C@@H](CO)C(=O)N[C@H](C(=O)N[C@@H](CO)C(=O)O)C(C)C)[C@@H](C)O` [Peptide 9019.0148]: the 50% inhibitory concentration (IC50) at purified HLA DRB1*0301 is more than 20000 nM; at purified HLA DRB1*0401, 360 nM; at purified HLA DRB1*0802 it was more than 20000 nM; at purified HLA DRB1*1201, more than 20000 nM; on purified HLA DRB3*0101 it was more than 20000 nM.
As to `CC[C@H](C)[C@H](NC(=O)[C@H](CCCNC(=N)N)NC(=O)[C@H](CC(C)C)NC(=O)[C@H](CCCNC(=N)N)NC(=O)[C@H](CCC(N)=O)NC(=O)[C@H](CC(C)C)NC(=O)[C@@H]1CCCN1C(=O)[C@@H](NC(=O)[C@H](CCC(N)=O)NC(=O)[C@H](CCCNC(=N)N)NC(=O)[C@@H](NC(=O)[C@H](CCC(N)=O)NC(=O)[C@H](CC(N)=O)NC(=O)[C@@H](N)Cc1c[nH]cn1)C(C)C)C(C)C)C(=O)N[C@H](C(=O)O)C(C)C` [Peptide 9019.0034], the “naturally processed and presented antigen” value in assay [1] was “naturally processed and presented antigens”. Besides, the “Total XRN” value in assay [2] was found to be 12.
Take `CC(C)C[C@H](NC(=O)[C@H](CC(C)C)NC(=O)[C@H](CC(C)C)NC(=O)[C@H](CC(C)C)NC(=O)[C@H](CC(C)C)NC(=O)[C@H](CC(C)C)NC(=O)[C@@H]1CCCN1C(=O)[C@H](CC(C)C)NC(=O)[C@H](CC(C)C)NC(=O)[C@@H]1CCCN1C(=O)[C@H](CC(C)C)NC(=O)[C@@H](N)CC(C)C)C(=O)NCC(=O)N[C@@H](C)C(=O)N[C@@H](CO)C(=O)O` [Peptide 9019.0176]: in assay [1], the “naturally processed and presented antigen” value was “naturally processed peptides”. Also, the “Total XRN” value in [2] was 10.
The like results for `CC(C)C[C@H](NC(=O)[C@H](CC(C)C)NC(=O)[C@H](CC(C)C)NC(=O)[C@H](CC(C)C)NC(=O)[C@H](CC(C)C)NC(=O)[C@H](CC(C)C)NC(=O)[C@@H]1CCCN1)C(=O)NCC(=O)N[C@@H](C)C(=O)N[C@@H](CO)C(=O)NCC(=O)NCC(=O)NCC(=O)NCC(=O)NCC(=O)O` [Peptide 9019.0177] were, in that order, “naturally processed peptides” and 4.

As usually defined, the IC50 is the concentration at which inhibition is half-maximal. A lower IC50 goes with greater potency.
